Measurements published in patent US12180200B1, “2-(benzo[d]oxazol-2-yl)-n′-(isonicotinoyloxy)acetimidamide as an antimicrobial compound” (KING FAISAL UNIVERSITY, priority 2023, dated 2024).

What was measured:
Type in all cases: cell-based
[1] = test system: Aspergillus flavus; assay: Agar plate disc-diffusion, antifungal activity
Description: (§1) The agar plate disc-diffusion method was applied. […] The discs were then placed onto the surface of agar plates (nutrient agar for bacteria and Sabouraud's dextrose agar for fungi) seeded with the test organism. Each plate contained 15 mL of the agar medium, previously seeded with 0.2 mL of the broth culture of each organism pregrown for 18 hours. The plates were incubated at 37° C. for 48 hours, and 72 hours for fungi. The inhibition zones was measured in mm. Discs impregnated with DMSO were used as a control, and its inhibition zone was subtracted from the tested compound actual inhibition zone.

[2] = test system: Chrysosporium keratinophilum; assay: Agar plate disc-diffusion, antifungal activity
Description: as §1

[3] = test system: Pseudomonas aeruginosa; assay: Agar plate disc-diffusion, antibacterial activity
Description: as §1

[4] = test system: Escherichia coli; assay: Agar plate disc-diffusion, antibacterial activity
Description: as §1

[5] = test system: Bacillus cereus; assay: Agar plate disc-diffusion, antibacterial activity
Description: as §1

[6] = test system: Staphylococcus aureus; assay: Agar plate disc-diffusion, antibacterial activity
Description: as §1

[7] = test system: different microbes; assay: Antimicrobial activity screening (overall statement); settings: against different microbes (bacteria and fungi of Tables 1 and 2)
Description: The agar plate disc-diffusion method was applied. Sterilized filter papers (6 mm in diameter) were wetted with 10 μL of a solution 2-(benzo[d]oxazol-2-yl)-N′-(isonicotinoyloxy)acetimidamide (3) to be tested, containing 10 mg/mL in DMSO, and the discs were allowed to air dry. The discs were then placed onto the surface of agar plates (nutrient agar for bacteria and Sabouraud's dextrose agar for fungi) seeded with the test organism. Each plate contained 15 mL of the agar medium, previously seeded with 0.2 mL of the broth culture of each organism pregrown for 18 hours. The plates were incubated at 37° C. for 48 hours, and 72 hours for fungi. The inhibition zones was measured in mm. Discs impregnated with DMSO were used as a control, and its inhibition zone was subtracted from the tested compound actual inhibition zone.

[8] = A = concentration of comp. = 10,000 μL
[9] = B = concentration of comp. = 30,000 μL
[10] = C = concentration of comp. = 50,000 μL

SMILES | inhibition zone [1, 8] | inhibition zone [1, 9] | inhibition zone [1, 10] | inhibition zone [2, 8] | inhibition zone [2, 9] | inhibition zone [2, 10] | inhibition zone [3, 8] | inhibition zone [3, 9] | inhibition zone [3, 10] | inhibition zone [4, 8] | inhibition zone [4, 9] | inhibition zone [4, 10] | inhibition zone [5, 8] | inhibition zone [5, 9] | inhibition zone [5, 10] | inhibition zone [6, 8] | inhibition zone ([6]; B =) | inhibition zone [6, 10] | antimicrobial activities [7]
O=C(O)c1cn(C2CC2)c2cc(N3CCNCC3)c(F)cc2c1=O [Cip., ciprofloxacin, reference compound] | 29 mm | 30 mm | 42 mm | 29 mm | 30 mm | 53 mm | 29 mm | 30 mm | 53 mm | 30 mm | 39 mm | 60 mm | 29 mm | 30 mm | 42 mm | 43 mm | 44 mm | 53 mm | –
N/C(Cc1nc2ccccc2o1)=N\OC(=O)c1ccncc1 [Compound 3, 2-(benzo[d]oxazol-2-yl)-N′-(isonicotinoyloxy)acetimidamide] | 20 mm | 24 mm | 35 mm | 26 mm | 29 mm | 48 mm | 25 mm | 29 mm | 50 mm | 27 mm | 36 mm | 52 mm | 25 mm | 27 mm | 36 mm | 17 mm | 24 mm | 30 mm | excellent antimicrobial activities
